Results published in patent US9856218B2, “Inhibitors of PRMT5 and methods of their use” (Ohio State Innovation Foundation, priority 2013, dated 2018).

What was measured:
[1] = system: FLT3 RNA and protein in MV4-11, THP-1 cells and FLT3-ITD patient samples; assay: FLT3 RNA (qRT-PCR) and protein (western blotting) after PRMT5 inhibition; format: cell-based; conditions: MV4-11, THP-1, FLT3-ITD patient samples
Protocol: Whole cell lysates were prepared by suspending cell pellets in RIPA buffer for 20 min (1% NP-40, 0.1% SDS, 150 mM NaCl, 50 mM Tris, pH 8.0), then supplemented with 1× complete EDTA free protease inhibitor (Roche) and 1× PhosStop (Roche). Lysates were separated by 4-20% SDS-PAGE and transferred to PVDF membrane (GE Healthcare, Piscataway, N.J.). Membranes were blocked with 5% milk or BSA in 1×TBS with 0.1% Tween 20 for 1 hour at room temperature with shaking. […]
Total RNA was extracted using TriZol reagent (Invitrogen) and subjected to Reverse Transcription using SuperScript III reagents (Invitrogen). Quantitative Real-Time PCR was performed on resulting cDNA using commercially available TaqMan Gene Expression Assay primers and probes, and the 7900HT Fast Real-Time PCR System (Applied Biosystems). Mature microRNA levels were quantified using reverse transcription product made with TaqMan MicroRNA Reverse Transcription Kit (Life Technologies).
PRMT5 has been reported to interact with, and to be regulated via posttranslational phosphorylation by mutant constitutively active tyrosine kinase; JAK2V617F (Liu, F., et al. (2011) Cancer Cell 19, 283-294). […] To further confirm FLT3 downregulation following PRMT5 knockdown, kinase activity was measured by detecting phosphorylated STAT5 levels. […]

[2] = system: SP1 protein in AML cell lines (FLT3-ITD and FLT3-WT); assay: SP1 protein levels, Western blotting; format: cell-based
Protocol: Whole cell lysates were prepared by suspending cell pellets in RIPA buffer for 20 min (1% NP-40, 0.1% SDS, 150 mM NaCl, 50 mM Tris, pH 8.0), then supplemented with 1× complete EDTA free protease inhibitor (Roche) and 1× PhosStop (Roche). Lysates were separated by 4-20% SDS-PAGE and transferred to PVDF membrane (GE Healthcare, Piscataway, N.J.). Membranes were blocked with 5% milk or BSA in 1×TBS with 0.1% Tween 20 for 1 hour at room temperature with shaking. Primary antibodies for ACTIN, GAPDH and FLT3 (Santa Cruz Biotechnology, Santa Cruz Calif.), P65 (Cell signaling), PRMT5 and SP1 (Millipore), H4R3, H3R8, H3 and H4 (Abcam), were diluted 1:1000 or 1:2000 in 5% milk or BSA and incubated for 1-2 hr at room temperature. Membranes were washed using 1×TBS-T, incubated with HRP-conjugated secondary antibodies diluted in 1×TBS-T with 5% milk or BSA, washed, and developed using SuperSignal West Dura Chemiluminescent Substrate (Thermo Scientific). […]
A similar trend was documented in the in vivo murine model of PRMT5 overexpression generated by THP-1/PRMT5 engraftment, as a significant increase in SP1 levels was measured when compared to THP-1/EV control mice (FIG. 45). […]

[3] = In vivo pharmacokinetics, plasma concentration; parameters: species or system Mouse; conditions: mouse, in vivo
From the text: Pharmacokinetic data of compounds HLCL-7, HLCL-61, and HLCL-66 taken from an in vivo study is illustrated in Table 10. […]

[4] = system: primary AML patient samples; assay: Differentiation marker CD11b, flow cytometry; format: cell-based, human; conditions: 25 μM, compared with vehicle-treated cells
Protocol: Cells (1×10^6) were washed and passed through a […] filter (BD), then re-suspended in 200 μL binding buffer with or without 5 μL AnnexinV (for apoptosis detection) or CD11b (for maturation detection) antibody (BD Biosciences, Billerica, Mass.). After 15 min. of incubation cells were washed with PBS, re-suspended in 500 μL flow buffer and analyzed on a FACSCalibur cytometer (BD Biosciences). For apoptosis detection, 5 μL propidium iodide (PI) (BD Biosciences) was added to cell before running flow cytometry. Sorting for GFP-positive cells was carried out on BD FACS Aria instrument after filtering and washing cells 2× with ice cold PBS supplemented with 2% calf bovine serum and re-suspending in FACS buffer.
PRMT5 inhibition by C12 was also effective in promoting apoptosis and differentiation.
The increase in CD11b expression in AML cells lines followed a dose-dependent manner.

CCn1c2ccccc2c2cc(CNCc3ccccc3OC)ccc21 [HLCL-61]
wild-type or mutated FLT3 RNA and protein [1]: significant downregulation | SP1 protein levels [2]: significant knockdown of SP1 protein levels | concentration at 0.08 h ([3]; ip, 25 mg/kg): 3150 nM | concentration at 0.17 h ([3]; ip, 25 mg/kg): 2280 nM | concentration at 0.33 h ([3]; ip, 25 mg/kg): 2040 nM | concentration at 0.5 h ([3]; ip, 25 mg/kg): 1830 nM | concentration at 1 h ([3]; ip, 25 mg/kg): 1390 nM | concentration at 2 h ([3]; ip, 25 mg/kg): 1500 nM | concentration at 4 h ([3]; ip, 25 mg/kg): 712 nM | concentration at 6 h ([3]; ip, 25 mg/kg): 696 nM | concentration at 8 h ([3]; ip, 25 mg/kg): 332 nM | concentration at 24 h ([3]; ip, 25 mg/kg): 1.4 nM | concentration at 0.08 h ([3]; iv, 5 mg/kg): 1220 nM | concentration at 0.17 h ([3]; iv, 5 mg/kg): 1610 nM | concentration at 0.33 h ([3]; iv, 5 mg/kg): 702 nM | concentration at 0.5 h ([3]; iv, 5 mg/kg): 994 nM | concentration at 1 h ([3]; iv, 5 mg/kg): 942 nM | concentration at 2 h ([3]; iv, 5 mg/kg): 525 nM | concentration at 4 h ([3]; iv, 5 mg/kg): 155 nM | concentration at 6 h ([3]; iv, 5 mg/kg): 94.4 nM | concentration at 8 h ([3]; iv, 5 mg/kg): 51.1 nM | concentration at 24 h ([3]; iv, 5 mg/kg): 6.76 nM | increase in expression of CD11b [4]: > 4 fold
